From ChEMBL document CHEMBL5649169 (ChemMedChem, 2018)

Experiments:
Homo sapiens [1] = species on record: Homo sapiens
[2] = molecular target: Bone morphogenetic protein receptor type-1A (Homo sapiens) (UniProt P36894)
[3] = molecular target: Cyclin-dependent kinase 2 (Homo sapiens) (UniProt P24941)
[4] = molecular target: Eukaryotic translation initiation factor 2-alpha kinase 1 (Homo sapiens) (UniProt Q9BQI3)
[5] = molecular target: Peptidyl-prolyl cis-trans isomerase FKBP3 (Homo sapiens) (UniProt Q00688)
[6] = molecular target: Macrophage migration inhibitory factor (Homo sapiens) (UniProt P14174)
[7] = molecular target: Man(5)GlcNAc(2)-PP-dolichol translocation protein RFT1 (Homo sapiens) (UniProt Q96AA3)
[8] = molecular target: Sec1 family domain-containing protein 1 (Homo sapiens) (UniProt Q8WVM8)
[9] = molecular target: Activated RNA polymerase II transcriptional coactivator p15 (Homo sapiens) (UniProt P53999)
[10] = molecular target: Non-selective voltage-gated ion channel VDAC2 (Homo sapiens) (UniProt P45880)
[11] = molecular target: Complex I assembly factor ACAD9, mitochondrial (Homo sapiens) (UniProt Q9H845)
[12] = molecular target: AP-1 complex subunit sigma-1A (Homo sapiens) (UniProt P61966)
[13] = molecular target: CCAAT/enhancer-binding protein zeta (Homo sapiens) (UniProt Q03701)
[14] = molecular target: Cleavage and polyadenylation specificity factor subunit 1 (Homo sapiens) (UniProt Q10570)
Cullin-5 (Homo sapiens) = Cullin-5 (Homo sapiens) (UniProt Q93034)
[15] = molecular target: ATP-dependent RNA helicase DHX29 (Homo sapiens) (UniProt Q7Z478)
[16] = molecular target: Desmoglein-1 (Homo sapiens) (UniProt Q02413)
[17] = molecular target: Forkhead box protein K1 (Homo sapiens) (UniProt P85037)
[18] = molecular target: Heterogeneous nuclear ribonucleoprotein D-like (Homo sapiens) (UniProt O14979)
[19] = molecular target: Lysine-specific histone demethylase 1A (Homo sapiens) (UniProt O60341)
[20] = molecular target: La-related protein 7 (Homo sapiens) (UniProt Q4G0J3)
[21] = molecular target: Serine/threonine-protein kinase LMTK2 (Homo sapiens) (UniProt Q8IWU2)
[22] = molecular target: Lanosterol synthase (Homo sapiens) (UniProt P48449)
[23] = molecular target: Unconventional myosin-Ig (Homo sapiens) (UniProt B0I1T2)
[24] = molecular target: Nuclear cap-binding protein subunit 2 (Homo sapiens) (UniProt P52298)
[25] = molecular target: PAS domain-containing serine/threonine-protein kinase (Homo sapiens) (UniProt Q96RG2)
[26] = molecular target: Peroxisomal biogenesis factor 3 (Homo sapiens) (UniProt P56589)
[27] = molecular target: DNA polymerase delta subunit 3 (Homo sapiens) (UniProt Q15054)
[28] = molecular target: Prospero homeobox protein 1 (Homo sapiens) (UniProt Q92786)
[29] = molecular target: E3 ubiquitin-protein ligase RBX1 (Homo sapiens) (UniProt P62877)
[30] = molecular target: E3 ubiquitin-protein ligase RNF5 (Homo sapiens) (UniProt Q99942)
[31] = molecular target: Ribosomal protein S6 kinase beta-1 (Homo sapiens) (UniProt P23443)
[32] = molecular target: STE20-related kinase adapter protein alpha (Homo sapiens) (UniProt Q7RTN6)
[33] = molecular target: Testis-expressed protein 10 (Homo sapiens) (UniProt Q9NXF1)
Macoilin (Homo sapiens) = Macoilin (Homo sapiens) (UniProt Q8N5G2)
[34] = molecular target: Ubiquitin carboxyl-terminal hydrolase 9X (Homo sapiens) (UniProt Q93008)
[35] = molecular target: Vacuolar protein sorting-associated protein 51 homolog (Homo sapiens) (UniProt Q9UID3)
Homo sapiens [36] = species on record: Homo sapiens; remark: listed apart in the source
[37] = molecular target: Histone-arginine methyltransferase CARM1 (Homo sapiens) (UniProt Q86X55)
[38] = molecular target: Eukaryotic translation initiation factor 3 subunit D (Homo sapiens) (UniProt O15371)
[39] = molecular target: Citrate synthase, mitochondrial (Homo sapiens) (UniProt O75390)
[40] = molecular target: 10 kDa heat shock protein, mitochondrial (Homo sapiens) (UniProt P61604)
[41] = molecular target: ER lumen protein-retaining receptor 1 (Homo sapiens) (UniProt P24390)
Matrin-3 (Homo sapiens) = Matrin-3 (Homo sapiens) (UniProt P43243)
[42] = molecular target: RNA-splicing ligase RtcB homolog (Homo sapiens) (UniProt Q9Y3I0)
[43] = molecular target: Serine/arginine-rich splicing factor 2 (Homo sapiens) (UniProt Q01130)
[44] = molecular target: EKC/KEOPS complex subunit TPRKB (Homo sapiens) (UniProt Q9Y3C4)
Also: assay method not described here.

Sequence of Ubiquitin carboxyl-terminal hydrolase 9X (Homo sapiens) (Q93008 whole entry): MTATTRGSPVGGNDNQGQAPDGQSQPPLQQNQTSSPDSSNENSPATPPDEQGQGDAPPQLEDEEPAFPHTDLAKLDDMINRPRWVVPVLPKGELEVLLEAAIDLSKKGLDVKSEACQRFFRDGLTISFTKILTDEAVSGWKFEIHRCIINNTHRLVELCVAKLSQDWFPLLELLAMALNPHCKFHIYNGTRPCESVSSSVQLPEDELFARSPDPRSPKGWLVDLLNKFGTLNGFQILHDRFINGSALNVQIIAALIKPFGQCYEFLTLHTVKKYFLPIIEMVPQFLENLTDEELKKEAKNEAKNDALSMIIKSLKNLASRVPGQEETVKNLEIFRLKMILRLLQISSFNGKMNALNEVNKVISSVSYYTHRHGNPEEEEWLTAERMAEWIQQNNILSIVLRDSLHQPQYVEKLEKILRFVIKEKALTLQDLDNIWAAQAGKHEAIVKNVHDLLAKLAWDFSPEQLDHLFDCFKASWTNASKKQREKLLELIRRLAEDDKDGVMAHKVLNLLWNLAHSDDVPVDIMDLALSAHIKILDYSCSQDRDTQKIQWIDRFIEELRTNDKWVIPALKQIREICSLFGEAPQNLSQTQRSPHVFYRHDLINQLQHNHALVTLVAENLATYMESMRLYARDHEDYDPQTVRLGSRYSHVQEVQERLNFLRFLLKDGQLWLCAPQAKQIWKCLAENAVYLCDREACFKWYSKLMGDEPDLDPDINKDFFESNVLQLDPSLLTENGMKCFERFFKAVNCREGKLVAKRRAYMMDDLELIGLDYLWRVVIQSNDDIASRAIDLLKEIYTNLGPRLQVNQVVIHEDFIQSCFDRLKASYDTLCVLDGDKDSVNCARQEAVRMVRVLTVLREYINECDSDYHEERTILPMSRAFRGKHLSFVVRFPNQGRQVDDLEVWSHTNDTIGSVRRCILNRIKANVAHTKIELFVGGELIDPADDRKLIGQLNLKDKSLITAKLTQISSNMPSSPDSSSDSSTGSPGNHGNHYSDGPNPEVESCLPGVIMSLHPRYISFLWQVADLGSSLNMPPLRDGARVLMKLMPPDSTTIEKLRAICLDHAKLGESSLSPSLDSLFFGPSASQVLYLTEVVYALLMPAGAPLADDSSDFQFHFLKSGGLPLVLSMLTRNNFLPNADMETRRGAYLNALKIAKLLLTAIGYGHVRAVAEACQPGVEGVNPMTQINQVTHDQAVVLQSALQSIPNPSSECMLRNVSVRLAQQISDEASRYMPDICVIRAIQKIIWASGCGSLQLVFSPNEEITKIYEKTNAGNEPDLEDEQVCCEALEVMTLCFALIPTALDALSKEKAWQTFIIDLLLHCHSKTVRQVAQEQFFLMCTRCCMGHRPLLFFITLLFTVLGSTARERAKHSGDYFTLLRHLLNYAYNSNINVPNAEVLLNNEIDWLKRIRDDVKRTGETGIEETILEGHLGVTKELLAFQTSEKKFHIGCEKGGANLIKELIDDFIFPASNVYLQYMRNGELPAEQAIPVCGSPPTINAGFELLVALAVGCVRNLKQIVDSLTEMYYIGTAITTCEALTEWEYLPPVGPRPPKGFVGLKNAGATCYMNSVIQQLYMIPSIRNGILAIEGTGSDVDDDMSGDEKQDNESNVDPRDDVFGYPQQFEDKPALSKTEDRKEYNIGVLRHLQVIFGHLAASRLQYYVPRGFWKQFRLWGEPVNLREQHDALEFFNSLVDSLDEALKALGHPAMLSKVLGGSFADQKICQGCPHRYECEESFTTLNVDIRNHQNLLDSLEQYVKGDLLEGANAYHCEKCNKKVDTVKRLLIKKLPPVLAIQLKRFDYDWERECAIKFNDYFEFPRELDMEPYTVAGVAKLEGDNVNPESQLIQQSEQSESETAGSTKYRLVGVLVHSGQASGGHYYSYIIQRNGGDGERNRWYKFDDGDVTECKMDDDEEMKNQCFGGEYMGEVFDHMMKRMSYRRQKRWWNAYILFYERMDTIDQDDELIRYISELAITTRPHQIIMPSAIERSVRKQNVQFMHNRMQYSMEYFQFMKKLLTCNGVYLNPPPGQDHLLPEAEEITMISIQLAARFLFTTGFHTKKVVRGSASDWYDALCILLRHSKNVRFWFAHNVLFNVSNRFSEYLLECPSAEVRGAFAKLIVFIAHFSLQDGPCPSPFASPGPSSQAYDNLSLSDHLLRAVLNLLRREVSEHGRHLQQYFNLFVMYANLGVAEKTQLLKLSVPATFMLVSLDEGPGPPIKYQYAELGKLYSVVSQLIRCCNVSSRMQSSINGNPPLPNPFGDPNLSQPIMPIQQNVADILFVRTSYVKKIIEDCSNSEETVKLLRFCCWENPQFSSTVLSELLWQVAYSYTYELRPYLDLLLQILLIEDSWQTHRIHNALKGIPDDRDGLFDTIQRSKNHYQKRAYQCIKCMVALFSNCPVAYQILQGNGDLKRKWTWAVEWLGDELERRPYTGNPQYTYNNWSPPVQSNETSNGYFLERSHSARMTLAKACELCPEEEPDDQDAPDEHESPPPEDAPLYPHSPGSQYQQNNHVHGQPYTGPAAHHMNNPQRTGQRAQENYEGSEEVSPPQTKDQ
Sequence of Macrophage migration inhibitory factor (Homo sapiens) (P14174 whole entry): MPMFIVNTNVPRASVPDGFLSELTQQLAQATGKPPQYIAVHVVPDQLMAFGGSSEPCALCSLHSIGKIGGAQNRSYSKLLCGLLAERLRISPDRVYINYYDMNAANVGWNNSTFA
Sequence of Lanosterol synthase (Homo sapiens) (P48449 whole entry): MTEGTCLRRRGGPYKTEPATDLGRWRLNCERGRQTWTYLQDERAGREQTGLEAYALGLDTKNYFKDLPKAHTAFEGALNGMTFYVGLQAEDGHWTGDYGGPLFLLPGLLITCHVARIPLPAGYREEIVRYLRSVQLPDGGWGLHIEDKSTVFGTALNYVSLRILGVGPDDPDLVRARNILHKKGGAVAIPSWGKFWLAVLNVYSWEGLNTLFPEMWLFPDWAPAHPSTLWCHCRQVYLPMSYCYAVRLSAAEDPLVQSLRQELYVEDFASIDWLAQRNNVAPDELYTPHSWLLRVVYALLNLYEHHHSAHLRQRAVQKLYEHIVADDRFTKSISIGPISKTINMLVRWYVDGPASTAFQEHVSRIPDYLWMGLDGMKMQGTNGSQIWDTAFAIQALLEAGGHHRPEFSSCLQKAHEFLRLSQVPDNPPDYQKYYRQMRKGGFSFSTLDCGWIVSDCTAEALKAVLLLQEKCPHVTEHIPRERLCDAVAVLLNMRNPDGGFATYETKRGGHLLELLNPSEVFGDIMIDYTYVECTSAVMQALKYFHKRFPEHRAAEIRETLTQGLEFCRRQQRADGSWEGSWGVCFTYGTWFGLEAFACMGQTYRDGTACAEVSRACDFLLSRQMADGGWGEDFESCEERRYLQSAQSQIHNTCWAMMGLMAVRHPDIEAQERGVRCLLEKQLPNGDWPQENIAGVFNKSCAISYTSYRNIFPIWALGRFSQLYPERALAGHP
Sequence of STE20-related kinase adapter protein alpha (Homo sapiens) (Q7RTN6 whole entry): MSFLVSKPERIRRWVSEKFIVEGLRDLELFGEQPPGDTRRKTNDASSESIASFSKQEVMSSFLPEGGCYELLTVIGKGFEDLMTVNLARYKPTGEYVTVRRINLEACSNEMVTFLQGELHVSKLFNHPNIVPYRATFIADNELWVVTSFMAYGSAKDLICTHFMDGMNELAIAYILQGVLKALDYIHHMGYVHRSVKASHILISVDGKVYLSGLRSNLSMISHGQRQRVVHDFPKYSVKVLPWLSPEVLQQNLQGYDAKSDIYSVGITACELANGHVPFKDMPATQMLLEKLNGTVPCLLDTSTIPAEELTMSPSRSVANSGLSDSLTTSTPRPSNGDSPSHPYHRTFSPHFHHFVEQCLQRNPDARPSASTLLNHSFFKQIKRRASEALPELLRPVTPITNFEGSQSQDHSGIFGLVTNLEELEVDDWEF
Sequence of E3 ubiquitin-protein ligase RNF5 (Homo sapiens) (Q99942 whole entry): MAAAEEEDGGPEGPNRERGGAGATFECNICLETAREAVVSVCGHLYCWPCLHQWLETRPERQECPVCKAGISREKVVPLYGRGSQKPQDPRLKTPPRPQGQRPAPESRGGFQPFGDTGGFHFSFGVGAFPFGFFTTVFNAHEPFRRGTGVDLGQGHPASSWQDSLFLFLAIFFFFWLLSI
Sequence of Non-selective voltage-gated ion channel VDAC2 (Homo sapiens) (P45880 whole entry): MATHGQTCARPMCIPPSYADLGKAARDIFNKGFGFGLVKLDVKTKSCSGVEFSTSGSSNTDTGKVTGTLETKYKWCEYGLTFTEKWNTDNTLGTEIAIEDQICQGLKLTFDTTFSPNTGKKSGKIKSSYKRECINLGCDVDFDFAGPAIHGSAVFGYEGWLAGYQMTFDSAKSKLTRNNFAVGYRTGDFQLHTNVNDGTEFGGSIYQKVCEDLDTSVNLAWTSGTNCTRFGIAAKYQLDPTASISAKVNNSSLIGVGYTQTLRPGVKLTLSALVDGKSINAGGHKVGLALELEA
Sequence of Peroxisomal biogenesis factor 3 (Homo sapiens) (P56589 whole entry): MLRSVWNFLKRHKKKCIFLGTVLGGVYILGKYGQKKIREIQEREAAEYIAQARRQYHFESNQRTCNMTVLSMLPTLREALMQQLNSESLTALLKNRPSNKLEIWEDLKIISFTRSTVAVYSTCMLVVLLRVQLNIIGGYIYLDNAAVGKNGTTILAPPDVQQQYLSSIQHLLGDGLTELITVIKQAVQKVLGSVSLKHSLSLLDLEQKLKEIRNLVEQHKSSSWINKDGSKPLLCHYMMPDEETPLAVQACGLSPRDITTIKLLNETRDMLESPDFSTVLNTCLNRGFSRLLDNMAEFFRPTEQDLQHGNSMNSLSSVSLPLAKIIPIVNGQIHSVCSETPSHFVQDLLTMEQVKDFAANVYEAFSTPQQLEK
Sequence of AP-1 complex subunit sigma-1A (Homo sapiens) (P61966 whole entry, one chain of several): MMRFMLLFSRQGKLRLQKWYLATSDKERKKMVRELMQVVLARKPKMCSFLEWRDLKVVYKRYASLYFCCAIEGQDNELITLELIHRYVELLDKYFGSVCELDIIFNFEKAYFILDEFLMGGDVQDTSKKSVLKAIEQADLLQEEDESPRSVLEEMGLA
Sequence of Nuclear cap-binding protein subunit 2 (Homo sapiens) (P52298 whole entry, the tested form may be a part): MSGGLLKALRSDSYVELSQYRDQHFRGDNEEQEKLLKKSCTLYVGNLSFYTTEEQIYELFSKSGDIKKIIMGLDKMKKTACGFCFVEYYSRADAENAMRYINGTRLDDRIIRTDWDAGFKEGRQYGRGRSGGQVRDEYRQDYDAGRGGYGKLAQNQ

Compound: Cc1ccc(C(=O)Nc2cccc(C(F)(F)F)c2)cc1Nc1nc(-c2cccnc2)nc2c1cnn2C
- ED50 (Homo sapiens [1]): 15.5 µM
- ED50 [2]: 0.99 µM
- ED50 [3]: 0.0475 µM
- ED50 [4]: 25.6 µM
- ED50 [5]: 12 µM
- ED50 [6]: 0.00224 µM
- ED50 [7]: 1.13 µM
- ED50 [8]: 0.171 µM
- ED50 [9]: 1090 µM
- ED50 [10]: 3.15 µM
- ED50 [11]: 42.8 µM
- ED50 [12]: 0.163 µM
- ED50 [13]: 3.24 µM
- ED50 [14]: 0.0118 µM
- ED50 (Cullin-5 (Homo sapiens)): 0.676 µM
- ED50 [15]: 15.3 µM
- ED50 [16]: 47.5 µM
- ED50 [17]: 0.00359 µM
- ED50 [18]: 0.0685 µM
- ED50 [19]: 0.000417 µM
- ED50 [20]: 13.7 µM
- ED50 [21]: 2.39 µM
- ED50 [22]: 112 µM
- ED50 [23]: 0.00217 µM
- ED50 [24]: 0.00229 µM
- ED50 [25]: 14.7 µM
- ED50 [26]: 0.0115 µM
- ED50 [27]: 0.00157 µM
- ED50 [28]: 6.66 µM
- ED50 [29]: 2.98 µM
- ED50 [30]: 23.2 µM
- ED50 [31]: 17.6 µM
- ED50 [32]: 0.0198 µM
- ED50 [33]: 18 µM
- ED50 (Macoilin (Homo sapiens)): 0.092 µM
- ED50 [34]: 0.0603 µM
- ED50 [35]: 5.2 µM
- ED50 (Homo sapiens [36]): 3.23 µM

Compound: Cc1ccc(C(=O)Nc2cccc(C(F)(F)F)c2)cc1Nc1nc(-c2cccnc2)nc2nn(C)cc12
- ED50 [37]: 0.113 µM
- ED50 [38]: 0.0504 µM
- ED50 [39]: 62.4 µM
- ED50 [40]: 0.0765 µM
- ED50 [41]: 0.000253 µM
- ED50 (Matrin-3 (Homo sapiens)): 0.0227 µM
- ED50 [42]: 0.0383 µM
- ED50 [43]: 0.00931 µM
- ED50 [44]: 0.55 µM
